The text below walks through data of ChEMBL document CHEMBL1137667, “Pyrrolidine dithiocarbamate and diethyldithiocarbamate are active against growing and nongrowing persister Mycobacterium tuberculosis” (2007).

Assay [1] relates to Mycobacterium tuberculosis. The assay is described as follows: Antimicrobial activity against 3 weeks old culture of Mycobacterium tuberculosis H37Ra assessed as colony forming unit in hypoxic condition at 10.3 ug/ml for 3 hrs. In kind it is functional.
The test system of assay [2] is Mycobacterium tuberculosis. The assay is described as follows: Antimicrobial activity against 3 weeks old culture of Mycobacterium tuberculosis H37Ra assessed as colony forming unit in aerobic condition at 10.3 ug/ml for 3 hrs. In kind it is functional.
The subject of assay [3] is Mycobacterium tuberculosis. As to the kind of experiment: Antimicrobial activity against 3 weeks old culture of Mycobacterium tuberculosis H37Rv assessed as 1:16 serum inhibitory titers treated with blood from 25 mg/kg, po dosed Swiss mouse collected after 1 hrs. In kind it is functional, organism-based. Further details: dose 25 mg/kg.
Assay [4] deals with Mycobacterium tuberculosis. As to the kind of experiment: Antimicrobial activity against Mycobacterium tuberculosis H37Rv. In kind it is functional.
The subject of assay [5] is Mycobacterium tuberculosis. As to the kind of experiment: Antimicrobial activity against Mycobacterium tuberculosis H37Rv assessed as drug concentration required to kill 99% of the inoculum. In kind it is functional.
Assay [6] deals with Mycobacterium tuberculosis. As to the kind of experiment: Antimicrobial activity against 2 weeks old culture of Mycobacterium tuberculosis H37Ra assessed as colony forming unit at 100 ug/ml for 3 days at pH 5.5. In kind it is functional.
For assay [7], the system named is Mycobacterium tuberculosis. As to the kind of experiment: Antimicrobial activity against 2 months old culture of Mycobacterium tuberculosis H37Ra assessed as colony forming unit at 100 ug/ml for 3 days at pH 5.5. Type of assay: functional.
For assay [8], the system named is Mycobacterium tuberculosis. As to the kind of experiment: Antimicrobial activity against 2 months old culture of Mycobacterium tuberculosis H37Ra assessed as colony forming unit at 4.5 ug/ml for 3 days at pH 5.5. Type of assay: functional.
Assay [9] deals with Mycobacterium tuberculosis. The assay is described as follows: Antimicrobial activity against 3 weeks old culture of Mycobacterium tuberculosis H37Ra assessed as colony forming unit in hypoxic condition at 4.5 ug/ml for 3 hrs. Type of assay: functional.
Assay [10] has as its system Mycobacterium tuberculosis. The assay is described as follows: Antimicrobial activity against 3 weeks old culture of Mycobacterium tuberculosis H37Rv assessed as 1:2 serum inhibitory titers treated with blood from 100 mg/kg, po dosed Swiss mouse collected after 2 hrs. Type of assay: functional, organism-based. Further details: dose 100 mg/kg.
The subject of assay [11] is Mycobacterium tuberculosis. The assay is described as follows: Antimicrobial activity against 3 weeks old culture of Mycobacterium tuberculosis H37Ra assessed as colony forming unit at 4.5 ug/ml for 3 days at pH 5.5. Type of assay: functional.
In assay [12] the test system is Mycobacterium tuberculosis. The assay is described as follows: Antimicrobial activity against 3 weeks old culture of Mycobacterium tuberculosis H37Ra assessed as colony forming unit in aerobic condition at 4.5 ug/ml for 3 hrs. In kind it is functional.
Assay [13] deals with Mycobacterium tuberculosis. As to the kind of experiment: Antimicrobial activity against 3 weeks old culture of Mycobacterium tuberculosis H37Ra assessed as colony forming unit at 4.5 ug/ml for 3 days at pH 7. Type of assay: functional.
Assay [14] deals with Mycobacterium tuberculosis. The assay is described as follows: Antimicrobial activity against 2 months old culture of Mycobacterium tuberculosis H37Ra assessed as colony forming unit at 4.5 ug/ml for 3 days at pH 7. In kind it is functional.
In assay [15] the test system is Mycobacterium tuberculosis. The assay is described as follows: Antimicrobial activity against 3 weeks old culture of Mycobacterium tuberculosis H37Rv assessed as 1:4 serum inhibitory titers treated with blood from 100 mg/kg, po dosed Swiss mouse collected after 2 hrs. Type of assay: functional, organism-based. Further details: dose 100 mg/kg.
Assay [16] relates to Mycobacterium tuberculosis. The assay is described as follows: Antimicrobial activity against 2 months old culture of Mycobacterium tuberculosis H37Ra assessed as colony forming unit at 5 ug/ml for 3 days at pH 5.5. In kind it is functional.
The test system of assay [17] is Mycobacterium tuberculosis. The assay is described as follows: Antimicrobial activity against Mycobacterium tuberculosis infected in human monocytes. In kind it is functional.
The test system of assay [18] is Mycobacterium tuberculosis. As to the kind of experiment: Antimicrobial activity against 1 month old culture of Mycobacterium tuberculosis H37Ra assessed as colony forming unit at 10 ug/ml for 3 days at pH 5.5. In kind it is functional.
Assay [19] has as its system Mycolicibacterium smegmatis. The assay is described as follows: Antimicrobial activity against Mycobacterium smegmatis mc26. In kind it is functional.
Assay [20] relates to Mycobacterium tuberculosis. The assay is described as follows: Antimicrobial activity against 3 weeks old culture of Mycobacterium tuberculosis H37Ra assessed as colony forming unit at 3.3 ug/ml for 3 days at pH 7. In kind it is functional.
Assay [21] has as its system Mycobacterium tuberculosis. The assay is described as follows: Antimicrobial activity against 3 weeks old culture of Mycobacterium tuberculosis H37Ra assessed as colony forming unit in hypoxic condition at 3.3 ug/ml for 3 hrs. Type of assay: functional.
The subject of assay [22] is Mycobacterium tuberculosis. As to the kind of experiment: Antimicrobial activity against 3 weeks old culture of Mycobacterium tuberculosis H37Ra assessed as colony forming unit in aerobic condition at 3.3 ug/ml for 3 hrs. Type of assay: functional.
Assay [23] relates to Escherichia coli. As to the kind of experiment: Antimicrobial activity against Escherichia coli DH5alpha. In kind it is functional.
Assay [24] deals with Mycobacterium tuberculosis. As to the kind of experiment: Antimicrobial activity against 2 months old culture of Mycobacterium tuberculosis H37Ra assessed as colony forming unit at 3.3 ug/ml for 3 days at pH 7. In kind it is functional.
Assay [25] deals with Mycobacterium tuberculosis. The assay is described as follows: Antimicrobial activity against 2 months old culture of Mycobacterium tuberculosis H37Ra assessed as colony forming unit at 3.3 ug/ml for 3 days at pH 5.5. Type of assay: functional.
Assay [26] relates to Mycobacterium tuberculosis. The assay is described as follows: Antimicrobial activity against 3 weeks old culture of Mycobacterium tuberculosis H37Ra assessed as colony forming unit at 3.3 ug/ml for 3 days at pH 5.5. Type of assay: functional.
Assay [27] relates to Mycobacterium tuberculosis. As to the kind of experiment: Antimicrobial activity against 2 months old culture of Mycobacterium tuberculosis H37Ra assessed as colony forming unit at 10 ug/ml for 3 days at pH 5.5. In kind it is functional.
The subject of assay [28] is Mycobacterium tuberculosis. The assay is described as follows: Antimicrobial activity against 3 weeks old culture of Mycobacterium tuberculosis H37Ra assessed as colony forming unit in aerobic condition at 2 ug/ml for 3 hrs. In kind it is functional.
Assay [29] has as its system Mycobacterium tuberculosis. As to the kind of experiment: Antimicrobial activity against 3 weeks old culture of Mycobacterium tuberculosis H37Ra assessed as colony forming unit in hypoxic condition at 2 ug/ml for 3 hrs. Type of assay: functional.

Converted amounts (≈) assume the structure as drawn. The source made the active and inactive calls. The rule behind the calls is not given here.

In the case of `C(=NC1CCCCC1)=NC1CCCCC1` [DICYCLOHEXYLCARBODIIMIDE], the log10CFU/ml in assay [1] was found to be 7.37; in assay [2] it was 7.43.
As a reminder, the MBC is the lowest tested concentration that kills the bacteria rather than only halting them. High values mean less potent killing, low ones more potent killing. The term MIC denotes the lowest concentration that inhibits growth of the organism. Higher therefore signals a need for much substance. Take `NNC(=O)c1ccncc1` [ISONIAZID]: the result in assay [3] was Active. In assay [4], this compound had an MBC of 0.12 µg/mL (≈ 0.875 µM) and an MIC of 0.06 µg/mL (≈ 0.438 µM). In [5], the Activity came to 0.25 µg/mL.
Take `NC(=O)c1cnccn1` [PYRAZINAMIDE]: the log10CFU/ml in assay [6] amounted to 0.26; in assay [7], 0.08.
In turn, `CCN(CC)C(=S)SSC(=S)N(CC)CC` [DISULFIRAM] showed an MIC in assay [4] of 8 µg/mL (≈ 27 µM).
Take `CCN(CC)C(=S)[S-].[Na+]` [DITIOCARB SODIUM]: the log10CFU/ml in assay [8] was determined as 3.18; in assay [9] it was 7.22; in [11] it was 1.28; in assay [12], 6.03; in assay [13], 2.07; in assay [14] it was 1.73. In addition, the log10CFU/ml stood at 0.96 in assay [16] and 0.14 in assay [18]. Moreover, the result in assay [10] and in assay [15] was Active. The MBC in assay [4] was found to be 8 µg/mL. Moreover, the MIC in assay [4] is 4 µg/mL; in assay [17], 1 µg/mL.
Turning to `S=C(S)N1CCCC1` [PYRROLIDINE DITHIOCARBAMATE], the values for the MIC in assay [19], in [23] and in assay [4] were 16 µg/mL (≈ 109 µM), 64 µg/mL (≈ 435 µM) and 0.125 µg/mL (≈ 0.849 µM), respectively. Also, the log10CFU/ml is listed as 2.65 in [20]; 7.1 in assay [21]; 6.19 in [22]; 0.42 in assay [16]; 0.94 in assay [24]; 0.13 in [25]. Moreover, the log10CFU/ml in assay [18] was 0.06; in assay [26], 0.89. In addition, the MBC in assay [4] was 0.5 µg/mL (≈ 3.4 µM). Further, the Activity in assay [5] was found to be 0.5 µg/mL.
Consider `CO[C@H]1/C=C/O[C@@]2(C)Oc3c(C)c(O)c4c(O)c(c(/C=N/N5CCN(C)CC5)c(O)c4c3C2=O)NC(=O)/C(C)=C\C=C\[C@H](C)[C@H](O)[C@@H](C)[C@@H](O)[C@@H](C)[C@H](OC(C)=O)[C@@H]1C` [RIFAMPIN], for which the log10CFU/ml in assay [27] is listed as 1.32; in assay [28], 4.63; in assay [29] it was 6.36.
